In paper PMC12525168, “Targeting carA Using Optimized Antisense Peptide Nucleic Acid–Cell-Penetrating Peptide Conjugates in Acinetobacter baumannii: A Novel Antibacterial Approach” (International Journal of Molecular Sciences, 2025):

Experiments:
A. baumannii ATCC 17978 [1] = assay: MIC by broth microdilution (CLSI); format: cell-based, Acinetobacter baumannii; conditions: CAMHB with TES buffer, 37 °C, 18–20 h, at least two independent experiments in duplicate
Text: CPP–PNA conjugates were synthesized by HLB […] Co., LTD. The binding sites within A. baumannii ATCC 17978 were predicted and analyzed using Geneious Prime (version 1 February 2025), enabling precise identification of target regions for subsequent antisense PNA design. Specifically, α-PNA modifications introduced arginine, while γ-PNA modifications incorporated guanidino-lysine. The diverse CPP–PNA and α- and γ-modified PNA oligomers were generated via solid-phase peptide synthesis using benzothiazole sulfonyl and standard fluorenylmethyloxycarbonyl chemistry procedures on an automatic synthesizer (HLB-[…]). The synthesized PNA oligomers were cleaved from the solid support resin using a mixed solution containing trifluoroacetic acid. The PNA mixture separated from the solid support was purified using reverse-phase high-performance liquid chromatography, and the purity and molecular weight were determined and confirmed using high-performance liquid chromatography and matrix-assisted laser desorption/ionization time-of-flight mass spectrometry (Figures S1 and S2). The MIC of each CPP–PNA conjugate was determined using the broth microdilution method in accordance with the Clinical and Laboratory Standards Institute guidelines. A. baumannii ATCC 17978 was used as the test strain. The CPP–PNA conjugates were tested at concentrations of […], 3.125, 6.25, 12.5, 25, and 50 µM in 100 µL of cation-adjusted Mueller–Hinton broth with N-Tris (hydroxymethyl) methyl-2-aminoethanesulfonic acid buffer (CAMHB; T3462; Thermo Fisher Scientific, Waltham, MA, USA). The microdilution plates were incubated at 37 °C for 18–20 h. A minimum of two independent experiments, each performed in duplicate, were conducted to ensure reproducibility.

A. baumannii ATCC 17978 [2] = assay: Bactericidal test: colony count after treatment with 50 µM CPP–PNA; format: cell-based, Acinetobacter baumannii; conditions: for Bactericidal activity in MBC assay (in words) / Average CFU: 50 µM CPP–PNA; for Average CFU: mean of two plates, plated 24 h; for Average CFU / MBC (CFU) in 50 µM CPP–PNA: 4 h at 37 °C; for MBC (CFU) in 50 µM CPP–PNA: 1 × 10^7 CFU/mL inoculum, 50 µL spread on Muller–Hinton agar, 24 h at 37 °C
Text: Artificially synthesized CPP–PNA (carA, […]) conjugates were used to silence carA. Briefly, carA-specific oligonucleotides were identified from the genomic sequence of A. baumannii ATCC 17978 (CP049363.1). The CPP–PNA conjugates, namely KFFK (FFK)2–PNA, KKFK (FFK)2–PNA, and KKKK (FFK)2–PNA, were synthesized by HLB […] Co., LTD. (Daejeon, Republic of Korea). These conjugates were engineered to specifically bind to the translation initiation region of carA, which includes the TTG start codon and the Shine-Dalgarno sequence (TTTGGT) crucial to ribosomal interaction.
To prepare bacterial suspensions, cultures of A. baumannii ATCC 17978 were grown until the OD600 value reached 0.8. The CPP–PNA conjugates were prepared to achieve concentrations of 50 and 0 µM in a total volume of 100 µL per well in 96-well plates. Subsequently, 10 µL of the adjusted bacterial suspension was inoculated into each well (1 × 10^7 CFU/mL). The plates were then incubated at 37 °C for 4 h. Subsequently, 50 µL of each CPP–PNA conjugate-treated bacterial suspension was spread on Muller–Hinton agar plates, with each condition distributed across two plates. The plates were subsequently incubated at 37 °C for 24 h to enable bacterial growth and colony formation.

Substance	MIC (A. baumannii ATCC 17978 [1]) [µM]	Bactericidal activity in MBC assay (in words) (A. baumannii ATCC 17978 [2])	Average CFU (A. baumannii ATCC 17978 [2])	MBC (CFU) in 50 µM CPP–PNA (A. baumannii ATCC 17978 [2]; plate 1 of two)	MBC (CFU) in 50 µM CPP–PNA (A. baumannii ATCC 17978 [2]; plate 2 of two)
Control 3 (acpP): KFFK(FFK)2 conjugated to PNA TGATTTGCCAC targeting acpP [reference compound]	25	–	–	–	–
KFFK(FFK)2-TCAAACCAAAGCT: KFFK(FFK)2 cell-penetrating peptide conjugated to unmodified 13-mer antisense PNA TCAAACCAAAGCT targeting carA RBS (all peptide nucleic acid (PNA); KFFK(FFK)2 peptide conjugated)	25	No A. baumannii colonies were detected	0 CFU	0 CFU	0 CFU
Control 5 (rne): KFFK(FFK)2 conjugated to PNA ACGTTTCATGG targeting rne [reference compound]	50	–	–	–	–
KKFK(FFK)2-TCAAACCAAAGCT: KKFK(FFK)2 cell-penetrating peptide conjugated to 13-mer antisense PNA TCAAACCAAAGCT targeting carA (all peptide nucleic acid (PNA); KKFK(FFK)2 peptide conjugated)	–	–	10.5 CFU	7 CFU	14 CFU
KKKK(FFK)2-TCAAACCAAAGCT: KKKK(FFK)2 cell-penetrating peptide conjugated to 13-mer antisense PNA TCAAACCAAAGCT targeting carA (all peptide nucleic acid (PNA); KKKK(FFK)2 peptide conjugated)	–	no bactericidal activity	TNTC	TNTC	TNTC
KFFK(FFK)2-CGGGGGTGCTCAA: KFFK(FFK)2 conjugated to 13-mer PNA targeting carA start codon (all peptide nucleic acid (PNA); KFFK(FFK)2 cell-penetrating peptide conjugated to the PNA, attachment site not given here)	>50	–	–	–	–
KFFK(FFK)2-TTACTGTTTAGAT: KFFK(FFK)2 conjugated to 13-mer PNA targeting carA stop codon (all peptide nucleic acid (PNA); KFFK(FFK)2 cell-penetrating peptide conjugated to the PNA, attachment site not given here)	50	–	–	–	–
Control 4 (ftsZ): KFFK(FFK)2 conjugated to PNA GAGGCCATGAC targeting ftsZ [reference compound]	50	–	–	–	–
KFFK(FFK)2-TCAAA*CCA*AAGCT: KFFK(FFK)2 conjugated to γ-modified 13-mer PNA targeting carA RBS (TCAAACCAAAGCT; KFFK(FFK)2 peptide conjugate, γ-modified PNA, chemistry not fully specified)	25	–	–	–	–
